According to US9555038B2, “Heterocycle-substituted tetracyclic compounds and methods of use thereof for the treatment of viral diseases” (Merck Sharp & Dohme Corp., priority 2013, dated 2017):
Read-outs that look alike come from different tables or passages of the source.

Assays:
[1] = system: HCV replicon 1B; experiment: Cell-based HCV Replicon Assay B, replicon 1B
Procedure, shortened: (§1)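 EC50 defined as the drug concentration giving a CT increase of 1 above projected baseline, from real-time RT-PCR of replicon RNA using genotype-specific primers and probes. Cells were seeded in 5% FBS, dosed after 24 h and incubated 3 days before lysis.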

[2] = system: HCV replicon 1AQ30D; experiment: Cell-based HCV Replicon Assay B, replicon 1AQ30D
Procedure, shortened: as §1

[3] = system: HCV replicon 2B; experiment: Cell-based HCV Replicon Assay A, replicon 2B
Procedure, shortened: (§2)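 Readout: replicon RNA by real-time RT-PCR, normalised to co-amplified cyclophilin and quantified against replicon total-RNA standard curves. Cells (2000/well) treated 3 days in medium with 5% FBS and 0.5% DMSO, compound in 10 serial dilutions from starting concentrations of 333.3 nM to 1.667 nM.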

[4] = system: HCV replicon 1A; experiment: Cell-based HCV Replicon Assay A, replicon 1A
Procedure, shortened: as §2

[5] = system: HCV replicon 1AY93H; experiment: Cell-based HCV Replicon Assay A, replicon 1AY93H
Procedure, shortened: as §2

[6] = Hepatitis C virus, read-out: 1A Q30D IC50 (nM), replicon 1AQ30D
[7] = Hepatitis C virus, read-out: 1A Y93H IC50 (nM), replicon 1AY93H
[8] = read-out: 1A Q30D IC50, replicon 1AQ30D
[9] = read-out: 1A Y93H IC50, replicon 1AY93H
[10] = Hepatitis C virus, read-out: 2B IC50 (nM), replicon 2B

COC(=O)N[C@H](C(=O)N1CCC[C@H]1c1ncc(-c2cc(F)c3c(c2)OC(c2cnc(Nc4ccc(F)cc4)s2)n2c-3cc3cc(-c4cnc([C@@H]5CCCN5C(=O)[C@@H](NC(=O)OC)C(C)C)[nH]4)ccc32)[nH]1)C(C)C (single isomer, unassigned) [Compound 534] gave an IC50 ([1]; Hepatitis C virus) of 3 pM, an IC50 [2, 6] of 0.267 nM and an IC50 ([3]; read-out: 2B IC50, replicon 2B) of 0.03 nM. For the same compound, the IC50 ([4]; Hepatitis C virus) was 2.4 pM and the IC50 [5, 7] was 0.094 nM.

Work on COC(=O)N[C@H](C(=O)N1CCC[C@H]1c1ncc(-c2cc(F)c3c(c2)OC(c2cnc(Nc4ccc(F)cc4)s2)n2c-3cc3cc(-c4cnc([C@@H]5CCCN5C(=O)[C@@H](NC(=O)OC)C(C)C)[nH]4)ccc32)[nH]1)C(C)C (single isomer, unassigned) [Compound 535] yielded an IC50 [1] of 3.2 pM, an IC50 [2, 8] of 0.172 nM and an IC50 ([3]; read-out: 2B IC50, replicon 2B) of 0.012 nM. The IC50 [4] was 3.1 pM and the IC50 [5, 9] was 0.084 nM.

With COC(=O)NC(C(=O)N1CCC[C@H]1c1ncc(-c2ccc3c(c2)cc2n3C(c3cnc(CC(C)C)s3)Oc3cc(-c4cnc([C@@H]5CCCN5C(=O)[C@@H](NC(=O)OC)C(C)C)[nH]4)cc(F)c3-2)[nH]1)C1CCOC(C)(C)C1 (single isomer, unassigned) [Compound 544] the IC50 ([1]; Hepatitis C virus) was 3.6 pM, the IC50 [2, 8] was 0.051 nM and the IC50 ([3]; read-out: 2B IC50, replicon 2B) was 0.006 nM. It also gave an IC50 [4] of 3.1 pM and an IC50 [5, 9] of 0.005 nM.

COC(=O)NC(C(=O)N1CCC[C@H]1c1ncc(-c2ccc3c(c2)cc2n3C(c3cnc(CC(C)C)s3)Oc3cc(-c4cnc([C@@H]5CCCN5C(=O)[C@@H](NC(=O)OC)C(C)C)[nH]4)cc(F)c3-2)[nH]1)C1CCOC(C)(C)C1 (single isomer, unassigned) [Compound 545] gave an IC50 [1] of 2.8 pM, an IC50 [2, 8] of 0.015 nM and an IC50 ([3]; read-out: 2B IC50, replicon 2B) of 0.006 nM. For the same compound, the IC50 [4] was 2.6 pM and the IC50 [5, 9] was 0.004 nM.

Work on COC(=O)NC(C(=O)N1CCC[C@H]1c1ncc(-c2ccc3c(c2)cc2n3C(c3cnc(CC(C)C)s3)Oc3cc(-c4cnc([C@@H]5CCCN5C(=O)[C@@H](NC(=O)OC)C(C)C)[nH]4)cc(F)c3-2)[nH]1)C1C[C@@H](C)O[C@@H](C)C1 (single isomer, unassigned) [Compound 547] yielded an IC50 ([1]; Hepatitis C virus) of 1.8 pM, an IC50 [2, 6] of 0.028 nM and an IC50 ([3]; read-out: 2B IC50, replicon 2B) of 0.006 nM. The IC50 [4] was 2.8 pM and the IC50 [5, 9] was 0.005 nM.

CCCc1ncc(C2Oc3cc(-c4cnc([C@@H]5CCCN5C(=O)[C@@H](NC(=O)OC)C(C)C)[nH]4)cc(F)c3-c3cc4cc(-c5cnc([C@@H]6CCCN6C(=O)[C@@H](NC(=O)OC)C(C)C)[nH]5)ccc4n32)s1 (stereo partly drawn) [Compound 15] gave an IC50 [1] of 3 pM, an IC50 [2, 6] of 0.118 nM and an IC50 ([3]; read-out: 2B IC50, replicon 2B) of 0.025 nM. It also gave an IC50 ([4]; Hepatitis C virus) of 2.9 pM and an IC50 [5, 9] of 0.0059 nM.

Compound COC(=O)N[C@H](C(=O)N1CCC[C@H]1c1nc(-c2cc(F)c3c(c2)OC(c2cnc(-c4cnccn4)s2)n2c-3cc3cc(-c4cnc([C@@H]5CCCN5C(=O)[C@@H](NC(=O)OC)C(C)C)[nH]4)ccc32)c[nH]1)C(C)C (stereo partly drawn) [Compound 424] has an IC50 ([1]; Hepatitis C virus) of 694 pM, an IC50 [2, 6] of 0.058 nM and an IC50 [3, 10] of 0.003 nM. The IC50 ([4]; Hepatitis C virus) was 1.9 pM and the IC50 [5, 7] was 0.0554 nM.

COC(=O)NC(C(=O)N1CCC[C@H]1c1ncc(-c2ccc3c(c2)cc2n3C(c3cnc(CC(C)(C)C)s3)Oc3cc(-c4cnc([C@@H]5CCCN5C(=O)[C@@H](NC(=O)OC)C(C)C)[nH]4)cc(F)c3-2)[nH]1)C1CCOC(C)(C)C1 (stereo partly drawn) [Compound 443] gave an IC50 ([1]; Hepatitis C virus) of 3.1 pM, an IC50 [2, 6] of 0.028 nM and an IC50 [3, 10] of 0.006 nM. For the same compound, the IC50 ([4]; Hepatitis C virus) was 3.1 pM and the IC50 [5, 7] was 0.008 nM.

For COC(=O)N[C@H](C(=O)N1CCC[C@H]1c1ncc(-c2cc(F)c3c(c2)OC(c2cnc(C4CCCCC4)s2)n2c-3cc3cc(-c4cnc([C@@H]5CCCN5C(=O)[C@@H](NC(=O)OC)C(C)C)[nH]4)ccc32)[nH]1)C(C)C (stereo partly drawn) [Compound 527], the IC50 ([1]; Hepatitis C virus) was 2.9 pM, the IC50 [2, 6] was 0.065 nM and the IC50 ([3]; read-out: 2B IC50, replicon 2B) was 0.014 nM. The IC50 ([4]; Hepatitis C virus) was 2.4 pM and the IC50 [5, 9] was 0.005 nM.
